# US20100298141A1, “SUBSTITUTED PYRIDINE N-OXIDE HERBICIDES” (E. I. DU PONT DE NEMOURS AND COMPANY, priority 2007, published 2010)
# Legend:
# [1] = test system: bermudagrass; test: Test C pre-/postemergence test; format: in vivo, Cynodon dactylon; details: Postemergence; for Plant response rating, Bermudagrass: scale 0 to 100, 0 no effect, 100 complete control
# Text: (§1) Seeds of plant species selected from blackgrass (Alopecurus myosuroides), downy brome (Bromus tectorum), green foxtail (Setaria viridis), Italian ryegrass (Lolium multiflorum), wheat (Triticum aestivum), wild oat (Avena fatua), catchweed bedstraw (Galium aparine), Russian thistle (Salsola kali), […] (Cynodon dactylon), Surinam grass (Brachiaria decumbens), cocklebur (Xanthium strumarium), corn (Zea mays), crabgrass (Digitaria sanguinalis), woolly cupgrass (Eriochloa villosa), giant foxtail (Setaria faberii), Goosegrass (Eleusin indica), johnsongrass (Sorghum halepense), kochia (Kochia scoparia), lambsquarters (Chenopodium album), morningglory (Ipomoea coccinea), eastern black nightshade (Solanum ptycanthum), yellow nutsedge (Cyperus esculentus), pigweed (Amaranthus retroflexus), common ragweed (Ambrosia elation), soybean (Glycine max), common (oilseed) sunflower (Helianthus annuus), and velvetleaf (Abutilon theophrasti) were planted and treated preemergence with test chemicals formulated in a non-phytotoxic solvent mixture which included a surfactant. At the same time, plants selected from these crop and weed species and also winter barley (Hordeum vulgare), canarygrass (Phalaris minor), and chickweed (Stellaria media) were treated with postemergence applications of some of the test chemicals formulated in the same manner. Plants ranged in height from 2 to 18 cm (1- to 4-leaf stage) for postemergence treatments. […] At time of treatment, test pots were flooded to 3 cm above the soil surface, treated by application of test compounds directly to the paddy water, and then maintained at that water depth for the duration of the test. […] A dash (-) response means no test result.
# [2] = test system: redroot pigweed; test: Test A pre-/postemergence greenhouse test; format: in vivo, Amaranthus retroflexus; details: for Pigweed plant response rating: 0 to 100 scale
# Outline: (§2)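 Sowing in loam/sand; same-day pre (directed soil spray) and post (foliar, 1–2 leaf, 2–10 cm) treatment with surfactant-containing non-phytotoxic solvent formulation; ~10 days in greenhouse; eye-scored injury against untreated plants.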
# [3] = test system: corn; test: Test A pre-/postemergence greenhouse test; format: in vivo, Zea mays; details: for Corn plant response rating: 0 to 100 scale
# Outline: as §2
# [4] = test system: barnyardgrass; test: Test A pre-/postemergence greenhouse test; format: in vivo, Echinochloa crus-galli; details: for Barnyardgrass plant response rating: 0 to 100 scale
# Outline: as §2
# [5] = test system: wheat; test: Test C pre-/postemergence test; format: in vivo, Triticum aestivum; details: Postemergence; for Plant response rating, Wheat: scale 0 to 100, 0 no effect, 100 complete control
# Text: as §1
# [6] = test system: Goosegrass; test: Test C pre-/postemergence test; format: in vivo, Eleusin indica; details: Postemergence; for Plant response rating, Goosegrass: scale 0 to 100, 0 no effect, 100 complete control
# Text: as §1
# [7] = test system: crabgrass; test: Test C pre-/postemergence test; format: in vivo, Digitaria sanguinalis; details: Postemergence; for Plant response rating, Crabgrass, Large: scale 0 to 100, 0 no effect, 100 complete control
# Text: as §1
# [8] = test system: morningglory; test: Test A pre-/postemergence greenhouse test; format: in vivo, Ipomoea spp.; details: for Morningglory plant response rating: 0 to 100 scale
# Outline: as §2
# [9] = test system: wheat; test: Test A pre-/postemergence greenhouse test; format: in vivo, Triticum aestivum; details: for Wheat plant response rating: 0 to 100 scale
# Outline: as §2
# [10] = test system: lambsquarters; test: Test C pre-/postemergence test; format: in vivo, Chenopodium album; details: Postemergence; for Plant response rating, Lambsquarters: scale 0 to 100, 0 no effect, 100 complete control
# Text: as §1
# [11] = test system: rice; test: Test C flooded paddy test; format: in vivo, Oryza sativa; details: Flood
# Outline: (§3)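 In-water treatment: compound dosed into 3 cm flood over soil, water level unchanged throughout. Controls run alongside; visual assessment at day 13–15.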
# [12] = test system: giant foxtail; test: Test A pre-/postemergence greenhouse test; format: in vivo, Setaria faberi; details: for Foxtail, Giant plant response rating: 0 to 100 scale
# Outline: as §2
# [13] = test system: Surinam grass; test: Test C pre-/postemergence test; format: in vivo, Brachiaria decumbens; details: Postemergence; for Plant response rating, Surinam Grass: scale 0 to 100, 0 no effect, 100 complete control
# Text: as §1
# [14] = test system: pigweed; test: Test C pre-/postemergence test; format: in vivo, Amaranthus retroflexus; details: Postemergence; for Plant response rating, Pigweed: scale 0 to 100, 0 no effect, 100 complete control
# Text: as §1
# [15] = test system: umbrella sedge; test: Test C flooded paddy test; format: in vivo, Cyperus difformis; details: Flood
# Outline: as §3
# [16] = Postemergence, 125 g ai/ha, 0 is no effect, 100 is complete control
# [17] = Postemergence, 500 g ai/ha, 0 is no effect, 100 is complete control
# [18] = Preemergence, 125 g ai/ha, 0 no effect, 100 complete control
# [19] = Preemergence, 500 g ai/ha, 0 to 100 scale where 0 is no effect and 100 is complete control
# [20] = 31 g ai/ha, scale 0 to 100 (0 no effect, 100 complete control)
# [21] = 62 g ai/ha, scale 0 to 100, 0 no effect, 100 complete control, 13 to 15 days
# [22] = 125 g ai/ha, scale 0 to 100, 0 no effect, 100 complete control, 13 to 15 days
# [23] = 250 g ai/ha, scale 0 to 100, 0 no effect, 100 complete control, 13 to 15 days
structure (smiles),measurement,setting,value
CC(c1c(C(F)(F)F)nn(C)c1Cl)S(=O)(=O)c1ccc(Cl)c[n+]1[O-] (racemic) [Compound 40],"Plant response rating (0 to 100), Bermudagrass",[1]; 31 g ai/ha,0
same,"Plant response rating, Bermudagrass",[1]; 62 g ai/ha,0
same,"Plant response rating, Bermudagrass",[1]; 125 g ai/ha,10
same,"Plant response rating, Bermudagrass",[1]; 250 g ai/ha,30
same,Pigweed plant response rating,[2]; [16],30
same,Pigweed plant response rating,[2]; [17],60
same,Pigweed plant response rating,[2]; [18],60
same,"Plant response rating, Pigweed",[2]; [19],100
same,Corn plant response rating,[3]; [16],0
same,Corn plant response rating,[3]; [17],40
same,Corn plant response rating,[3]; [18],0
same,"Plant response rating, Corn",[3]; [19],0
same,Barnyardgrass plant response rating,[4]; [16],80
same,Barnyardgrass plant response rating,[4]; [17],90
same,Barnyardgrass plant response rating,[4]; [18],70
same,"Plant response rating, Barnyardgrass",[4]; [19],100
same,"Plant response rating (0 to 100), Wheat",[5]; 31 g ai/ha,0
same,"Plant response rating (0 to 100), Wheat",[5]; 62 g ai/ha,0
same,"Plant response rating, Wheat",[5]; 125 g ai/ha,0
same,"Plant response rating, Wheat",[5]; 250 g ai/ha,5
same,"Plant response rating (0 to 100), Goosegrass",[6]; 31 g ai/ha,0
same,"Plant response rating, Goosegrass",[6]; 62 g ai/ha,0
same,"Plant response rating, Goosegrass",[6]; 125 g ai/ha,0
same,"Plant response rating, Goosegrass",[6]; 250 g ai/ha,0
same,"Plant response rating (0 to 100), Crabgrass, Large",[7]; 31 g ai/ha,0
same,"Plant response rating, Crabgrass, Large",[7]; 62 g ai/ha,0
same,"Plant response rating, Crabgrass, Large",[7]; 125 g ai/ha,0
same,"Plant response rating, Crabgrass, Large",[7]; 250 g ai/ha,0
same,Morningglory plant response rating,[8]; [16],0
same,Morningglory plant response rating,[8]; [17],30
same,Morningglory plant response rating,[8]; [18],0
same,"Plant response rating, Morningglory",[8]; [19],80
same,Wheat plant response rating,[9]; [16],30
same,Wheat plant response rating,[9]; [17],50
same,Wheat plant response rating,[9]; [18],0
same,"Plant response rating, Wheat",[9]; [19],40
same,"Plant response rating (0 to 100), Lambsquarters",[10]; 31 g ai/ha,0
same,"Plant response rating, Lambsquarters",[10]; 62 g ai/ha,0
same,"Plant response rating, Lambsquarters",[10]; 125 g ai/ha,0
same,"Plant response rating, Lambsquarters",[10]; 250 g ai/ha,0
same,"Plant response rating, Rice",[11]; [20],0
same,"Plant response rating, Rice",[11]; [21],15
same,"Plant response rating, Rice",[11]; [22],60
same,"Plant response rating, Rice",[11]; [23],65
same,"Foxtail, Giant plant response rating",[12]; [16],80
same,"Foxtail, Giant plant response rating",[12]; [17],90
same,"Foxtail, Giant plant response rating",[12]; [18],90
same,"Plant response rating, Foxtail, Giant",[12]; [19],100
same,"Plant response rating (0 to 100), Surinam Grass",[13]; 31 g ai/ha,0
same,"Plant response rating (0 to 100), Surinam Grass",[13]; 62 g ai/ha,0
same,"Plant response rating, Surinam Grass",[13]; 125 g ai/ha,0
same,"Plant response rating, Surinam Grass",[13]; 250 g ai/ha,0
same,"Plant response rating (0 to 100), Pigweed",[14]; 31 g ai/ha,0
same,"Plant response rating (0 to 100), Pigweed",[14]; 62 g ai/ha,0
same,"Plant response rating, Pigweed",[14]; 125 g ai/ha,0
same,"Plant response rating, Pigweed",[14]; 250 g ai/ha,0
same,"Plant response rating, Sedge, Umbrella",[15]; [20],20
same,"Plant response rating, Sedge, Umbrella",[15]; [21],45
same,"Plant response rating, Sedge, Umbrella",[15]; [22],75
same,"Plant response rating, Sedge, Umbrella",[15]; [23],85
